Data: patent US20140017701A1, “CHIMERIC PDK1 KINASES” (priority 2011, published 2014)

What was measured:
Format in all cases: biochemical
SGK = biological target: T1, SGK (Homo sapiens, UniProt O00141, S422D); assay: Protein kinase activity assay, SGK; details: Table I a; percentage of catalytic activity compared to DMSO; Crosstide substrate
T1 construct: made in house; host or cells: HEK293
T1 sequence (O00141 61-431 S422D limits assumed): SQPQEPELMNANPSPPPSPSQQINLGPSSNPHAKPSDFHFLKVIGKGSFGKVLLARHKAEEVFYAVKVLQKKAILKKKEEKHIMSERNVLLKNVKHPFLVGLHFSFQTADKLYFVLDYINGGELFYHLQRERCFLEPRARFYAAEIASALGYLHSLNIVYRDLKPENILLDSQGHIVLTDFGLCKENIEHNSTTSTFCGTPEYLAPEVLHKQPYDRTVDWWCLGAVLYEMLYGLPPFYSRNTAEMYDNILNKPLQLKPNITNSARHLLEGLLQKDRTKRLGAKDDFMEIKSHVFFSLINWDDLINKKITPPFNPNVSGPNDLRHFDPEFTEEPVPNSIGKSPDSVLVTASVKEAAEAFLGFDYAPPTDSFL
Experimental: For the expression and purification of protein kinases fused to GST, pEBG-2T derived plasmids were transfected into 8×14.5 cm dishes containing HEK293 cells using the PEI method ([…] and […]/14.5 cm dish). The cells were lysed after 48 h in a buffer containing 50 mM Tris-HCl pH 7.5, 1 mM EGTA, 1 mM EDTA, 1% (w/v) Triton X-100, 1 mM sodium orthovanadate, […], 5 mM sodium pyrophosphate, 0.27 M sucrose, 0.1% β-mercaptoethanol, and 1 tablet of protease inhibitor cocktail per 50 ml of buffer. Lysates were frozen in liquid nitrogen and kept at −80° C. until required. Purification involved incubation of the cleared lysate with glutathione sepharose, followed by 2 washes with 0.5 M NaCl in lysis buffer, 8 washes with a buffer containing 50 mM Tris-HCl, 0.1 mM EGTA and 0.1% β-mercaptoethanol (buffer A), and a last wash with buffer A supplemented with 0.26 M sucrose. […]
The protein kinase activity assays were performed essentially as previously described (Engel, M. et al. Embo J 25, 5469-80 (2006)). The assays were done in a 96-well format and 4 μl aliquots spotted on P81 phospho-cellulose papers (Whatman) using epMotion 5070 (Eppendorf), washed in 0.01% phosphoric acid, dried, and then exposed and analyzed using PhosphoImager technology (FLA-9000 Starion, Fujifilm). […]

PKCι = biological target: T2, PKCι (Homo sapiens, UniProt P41743); assay: Protein kinase activity assay, PKCι; details: for Effect on PKCι activity: 50 μM; for Activity (%) Atypical PKCs PKCι: Table I b, percentage of catalytic activity compared to DMSO
T2 construct: made in house; host or cells: HEK293
T2 sequence (P41743 10-596 limits assumed): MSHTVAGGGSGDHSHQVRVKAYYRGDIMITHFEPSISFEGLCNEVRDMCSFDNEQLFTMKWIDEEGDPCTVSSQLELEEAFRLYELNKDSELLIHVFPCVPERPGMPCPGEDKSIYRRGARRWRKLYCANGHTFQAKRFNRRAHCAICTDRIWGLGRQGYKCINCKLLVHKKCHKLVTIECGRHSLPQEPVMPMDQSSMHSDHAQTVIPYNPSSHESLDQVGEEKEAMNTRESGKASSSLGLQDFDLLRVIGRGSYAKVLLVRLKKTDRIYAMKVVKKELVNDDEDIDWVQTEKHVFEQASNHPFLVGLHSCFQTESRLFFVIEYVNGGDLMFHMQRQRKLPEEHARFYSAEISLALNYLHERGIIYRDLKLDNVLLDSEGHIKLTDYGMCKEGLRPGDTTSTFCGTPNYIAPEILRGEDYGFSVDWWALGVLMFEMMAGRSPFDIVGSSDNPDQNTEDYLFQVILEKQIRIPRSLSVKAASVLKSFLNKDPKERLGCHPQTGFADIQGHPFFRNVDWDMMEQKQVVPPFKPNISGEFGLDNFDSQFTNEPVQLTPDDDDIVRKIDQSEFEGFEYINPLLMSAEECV
Experimental: For the expression and purification of protein kinases fused to GST, pEBG-2T derived plasmids were transfected into 8×14.5 cm dishes containing HEK293 cells using the PEI method ([…] and […]/14.5 cm dish). The cells were lysed after 48 h in a buffer containing 50 mM Tris-HCl pH 7.5, 1 mM EGTA, 1 mM EDTA, 1% (w/v) Triton X-100, 1 mM sodium orthovanadate, […], 5 mM sodium pyrophosphate, 0.27 M sucrose, 0.1% β-mercaptoethanol, and 1 tablet of protease inhibitor cocktail per 50 ml of buffer. Lysates were frozen in liquid nitrogen and kept at −80° C. until required. Purification involved incubation of the cleared lysate with glutathione sepharose, followed by 2 washes with 0.5 M NaCl in lysis buffer, 8 washes with a buffer containing 50 mM Tris-HCl, 0.1 mM EGTA and 0.1% β-mercaptoethanol (buffer A), and a last wash with buffer A supplemented with 0.26 M sucrose. Elution was performed with this last buffer containing 20 mM glutathione and the GST-fusion protein was cleared from resin by filtration through a “SigmaPrep” spin column (Sigma). GST-fusion proteins were aliquoted, snap frozen in liquid nitrogen and kept at −80° C. until use. Purity at this stage was above 85% as estimated by SDS-PAGE and staining with Coomassie Brilliant Blue R250. PRK2 was expressed from pEBG-2T-PRK2 (Balendran, A. et al. J Biol Chem 275, 20806-13. (2000)), SGK1 from pEBG-2T-SGK1-ΔN[Ser422Asp], PKBα from pEBG-2T-PKBα[Ser473Asp] (Biondi et al., D. R. Embo J 20, 4380-90. (2001)), PKCl from pEBG-2T-PKCl and PKCζ from pEBG-2T-PKCζ. PDK1 and S6K1 were expressed in Sf9 insect cells using a baculovirus expression system from pFastBac-PDK1 and pFastBac-56K1-T2[Thr412Glu].
The protein kinase activity assays were performed essentially as previously described (Engel, M. et al. Embo J 25, 5469-80 (2006)). The assays were done in a 96-well format and 4 μl aliquots spotted on P81 phospho-cellulose papers (Whatman) using epMotion 5070 (Eppendorf), washed in 0.01% phosphoric acid, dried, and then exposed and analyzed using PhosphoImager technology (FLA-9000 Starion, Fujifilm). Atypical PKC (aPKC) activity assays were performed in a total volume of 20 μl containing 50 mM Tris-HCl pH 7.5, 0.05 mg/ml BSA, 0.1% (v/v) 2-mercaptoethanol, 10 mM MgCl2, 100 μM [γ^32P]ATP (5-50 cpm/pmol), 0.003% Brij, 30-50 ng of aPKC, and MBP (10 μM) or PSRtide (100 μM) as the substrate. After 15 min pre-incubation, the kinase reaction was started by addition of 6 μl of an ATP-Mg mix. When required, lipid activator (LA) phosphatidylserine (100 ng) or PKC lipid activator mix (1×) was included in the pre-incubation. Low basal activity and consistent activation of 1-592 PKCζ and 498 PKCζ by LA was obtained when the pre-incubation time was started by addition of the whole mix on the enzyme. […]

PKCα = biological target: T3, PKCα (Homo sapiens, UniProt P17252); assay: Protein kinase activity assay, PKCα; details: Table I b; percentage of catalytic activity compared to DMSO; lipid activator mix, histone H1
T3 construct: purchased Millipore
Experimental: (§1) The protein kinase activity assays were performed essentially as previously described (Engel, M. et al. Embo J 25, 5469-80 (2006)). The assays were done in a 96-well format and 4 μl aliquots spotted on P81 phospho-cellulose papers (Whatman) using epMotion 5070 (Eppendorf), washed in 0.01% phosphoric acid, dried, and then exposed and analyzed using PhosphoImager technology (FLA-9000 Starion, Fujifilm). Atypical PKC (aPKC) activity assays were performed in a total volume of 20 μl containing 50 mM Tris-HCl pH 7.5, 0.05 mg/ml BSA, 0.1% (v/v) 2-mercaptoethanol, 10 mM MgCl2, 100 μM [γ^32P]ATP (5-50 cpm/pmol), 0.003% Brij, 30-50 ng of aPKC, and MBP (10 μM) or PSRtide (100 μM) as the substrate. After 15 min pre-incubation, the kinase reaction was started by addition of 6 μl of an ATP-Mg mix. When required, lipid activator (LA) phosphatidylserine (100 ng) or PKC lipid activator mix (1×) was included in the pre-incubation. Low basal activity and consistent activation of 1-592 PKCζ and 498 PKCζ by LA was obtained when the pre-incubation time was started by addition of the whole mix on the enzyme.
(§2) The substrates were T308tide (200 μM) for PDK1, Kemptide (100 μM) for PKA, and Crosstide (100 μM) for SGK, PKB, S6K, and PRK2. The activity assays for PKCα, β, θ, and δ were performed in the presence of PKC lipid activator mix (1×) using 3 μM of histone H1 as substrate. […]

PKCδ = biological target: T4, PKCδ (Homo sapiens, UniProt Q05655); assay: Protein kinase activity assay, PKCδ; details: Table I b; percentage of catalytic activity compared to DMSO; lipid activator mix, histone H1
T4 construct: purchased ProQinase
T4 sequence (Q05655 whole entry): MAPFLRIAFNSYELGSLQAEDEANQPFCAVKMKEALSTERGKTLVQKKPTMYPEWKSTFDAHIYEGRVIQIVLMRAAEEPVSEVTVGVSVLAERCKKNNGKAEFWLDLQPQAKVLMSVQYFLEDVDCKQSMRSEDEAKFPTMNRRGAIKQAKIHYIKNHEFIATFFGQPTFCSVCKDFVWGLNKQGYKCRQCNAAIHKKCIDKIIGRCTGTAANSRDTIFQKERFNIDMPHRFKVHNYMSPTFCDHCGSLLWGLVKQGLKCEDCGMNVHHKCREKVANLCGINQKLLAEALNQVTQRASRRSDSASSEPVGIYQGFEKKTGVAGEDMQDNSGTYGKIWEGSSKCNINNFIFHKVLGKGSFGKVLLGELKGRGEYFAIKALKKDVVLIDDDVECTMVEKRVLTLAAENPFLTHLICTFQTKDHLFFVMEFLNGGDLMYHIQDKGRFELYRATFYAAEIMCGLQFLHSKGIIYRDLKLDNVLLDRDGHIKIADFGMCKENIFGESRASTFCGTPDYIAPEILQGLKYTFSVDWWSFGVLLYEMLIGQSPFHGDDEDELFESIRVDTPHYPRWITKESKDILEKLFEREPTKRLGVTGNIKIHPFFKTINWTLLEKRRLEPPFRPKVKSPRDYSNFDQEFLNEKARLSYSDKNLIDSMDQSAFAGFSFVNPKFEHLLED
Experimental: as §1, §2

Row | Activity (%) SGK (SGK) [%] | Effect on PKCι activity (PKCι) | Activity (%) Atypical PKCs PKCι (PKCι) [%] | Activity (%) Classical PKCs PKCα (PKCα) [%] | Activity (%) Novel PKCs PKCδ (PKCδ) [%] | SMILES
1 | 97 | not | 106 | 145 | 170 | Cl.O=C(O)CC(Cc1nc2c(Cl)cc(Cl)cc2[nH]1)c1ccc(Cl)cc1 (stereo not shown) [PS171]
2 | 93 | not | 108 | 154 | 148 | Cl.O=C(O)CC(Cc1nc2cc(-c3ccccc3)ccc2[nH]1)c1ccc(Cl)cc1 (stereo not shown) [PS168]
